PubChem BioAssay AID192 (DTP/NCI, 2004)
Where “and” joins values, the source holds several entries; their conditions need not be identical. Equal values may be shown once. Inconclusive results and toxic doses are left out.

Tested on: BDF1 mice, B16 melanoma ip, median survival T/C
Assay: NCI In Vivo Anticancer Drug Screen. Data for tumor model B16 Melanoma (intraperitoneal) in B6D2F1 (BDF1) mice
Conditions: endpoint: median survival time, higher = longer survival
Procedure, shortened: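 Antitumor activity is assessed in mice bearing a transplanted tumor, with survival or tumor size compared against vehicle-dosed controls and expressed as T/C.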

[1] = dose: 50.0 mg/kg/injection, schedule: Q01DX009 (ip), vehicle: saline
[2] = dose: 12.5 mg/kg/injection, schedule: Q01DX009 (ip), vehicle: Klucel (hydroxypropylcellulose) (HPC)

**Q.** For `CSC1SCC2C(=O)N(C)C(C(C)C)C(=O)OCC(NC(=O)c3cnc4ccccc4n3)C(=O)NC(C)C(=O)N(C)C1C(=O)N(C)C(C(C)C)C(=O)OCC(NC(=O)c1cnc3ccccc3n1)C(=O)NC(C)C(=O)N2C` (configuration not stated), which T/C (dose: 0.1 micrograms/kg/injection, schedule: Q01DX009 (ip), vehicle: saline with Tween-80) is on record?
**A.** 106 % of control

**Q.** And the T/C (dose: 0.2 micrograms/kg/injection, schedule: Q01DX009 (ip), vehicle: saline with Tween-80)?
**A.** 105 % of control

**Q.** What about the T/C (dose: 0.4 micrograms/kg/injection, schedule: Q01DX009 (ip), vehicle: saline with Tween-80) of the same compound?
**A.** 108 % of control

**Q.** And the T/C (dose: 0.9 micrograms/kg/injection, schedule: Q01DX009 (ip), vehicle: saline with Tween-80)?
**A.** 108 % of control

**Q.** What about the T/C (dose: 0.94 micrograms/kg/injection, schedule: Q01DX009 (ip), vehicle: Klucel (hydroxypropylcellulose) (HPC)) of the same compound?
**A.** 93 % of control

**Q.** And the T/C (dose: 0.94 micrograms/kg/injection, schedule: Q01DX009 (ip), vehicle: clinical formulation)?
**A.** 113 % of control

**Q.** And the T/C (dose: 0.94 micrograms/kg/injection, schedule: Q01DX009 (ip), vehicle: distilled water + alcohol)?
**A.** 118 % of control

**Q.** And the T/C (dose: 1.8 micrograms/kg/injection, schedule: Q01DX009 (ip), vehicle: saline with Tween-80)?
**A.** 151 % of control and 167 % of control

**Q.** What about the T/C (dose: 1.88 micrograms/kg/injection, schedule: Q01DX009 (ip), vehicle: Klucel (hydroxypropylcellulose) (HPC)) of the same compound?
**A.** 88 % of control

**Q.** And the T/C (dose: 1.88 micrograms/kg/injection, schedule: Q01DX009 (ip), vehicle: clinical formulation)?
**A.** 112 % of control

**Q.** And the T/C (dose: 1.88 micrograms/kg/injection, schedule: Q01DX009 (ip), vehicle: distilled water + alcohol)?
**A.** 117 % of control

**Q.** And the T/C (dose: 1.9 micrograms/kg/injection, schedule: Q01DX009 (ip), vehicle: saline)?
**A.** 156 % of control

**Q.** And the T/C (dose: 3.75 micrograms/kg/injection, schedule: Q01DX009 (ip), vehicle: Klucel (hydroxypropylcellulose) (HPC))?
**A.** 102 % of control

**Q.** And the T/C (dose: 3.75 micrograms/kg/injection, schedule: Q01DX009 (ip), vehicle: distilled water + alcohol)?
**A.** 113 % of control

**Q.** And the T/C (dose: 3.8 micrograms/kg/injection, schedule: Q01DX009 (ip), vehicle: saline)?
**A.** 123 % of control

**Q.** And the T/C (dose: 7.5 micrograms/kg/injection, schedule: Q01DX009 (ip), vehicle: Klucel (hydroxypropylcellulose) (HPC))?
**A.** 107 % of control

**Q.** And the T/C (dose: 7.5 micrograms/kg/injection, schedule: Q01DX009 (ip), vehicle: distilled water + alcohol)?
**A.** 123 % of control

**Q.** And the T/C (dose: 8.0 micrograms/kg/injection, schedule: Q01DX009 (ip), vehicle: other)?
**A.** 152 % of control and 155 % of control

**Q.** What about the T/C (dose: 15.0 micrograms/kg/injection, schedule: Q01DX009 (ip), vehicle: Klucel (hydroxypropylcellulose) (HPC)) of the same compound?
**A.** 115 % of control

**Q.** And the T/C (dose: 15.0 micrograms/kg/injection, schedule: Q01DX009 (ip), vehicle: clinical formulation)?
**A.** 169 % of control

**Q.** And the T/C (dose: 15.0 micrograms/kg/injection, schedule: Q01DX009 (ip), vehicle: saline)?
**A.** 174 % of control

**Q.** And the T/C (dose: 16.0 micrograms/kg/injection, schedule: Q01DX009 (ip), vehicle: other)?
**A.** 161 % of control

**Q.** And the T/C (dose: 16.0 micrograms/kg/injection, schedule: Q01DX009 (ip), vehicle: saline sonified)?
**A.** 160 % of control and 168 % of control

**Q.** What about the T/C (dose: 16.0 micrograms/kg/injection, schedule: Q01DX009 (ip), vehicle: saline) of the same compound?
**A.** 160 % of control

**Q.** What about the T/C (dose: 30.0 micrograms/kg/injection, schedule: Q01DX009 (ip), vehicle: clinical formulation) of the same compound?
**A.** 168 % of control

**Q.** What about the T/C (dose: 30.0 micrograms/kg/injection, schedule: Q01DX009 (ip), vehicle: saline with Tween-80) of the same compound?
**A.** 88 % of control

**Q.** And the T/C (dose: 30.0 micrograms/kg/injection, schedule: Q01DX009 (ip), vehicle: saline)?
**A.** 183 % of control

**Q.** And the T/C (dose: 32.0 micrograms/kg/injection, schedule: Q01DX009 (ip), vehicle: other)?
**A.** 157 % of control and 158 % of control and 160 % of control

**Q.** And the T/C (dose: 32.0 micrograms/kg/injection, schedule: Q01DX009 (ip), vehicle: saline sonified)?
**A.** 167 % of control and 170 % of control and 189 % of control

**Q.** And the T/C (dose: 32.0 micrograms/kg/injection, schedule: Q01DX009 (ip), vehicle: saline)?
**A.** 165 % of control

**Q.** And the T/C (dose: 32.0 micrograms/kg/injection, schedule: Q04DX003 (ip), vehicle: saline sonified)?
**A.** 156 % of control

**Q.** And the T/C (dose: 60.0 micrograms/kg/injection, schedule: Q01DX009 (ip), vehicle: clinical formulation)?
**A.** 173 % of control

**Q.** What about the T/C (dose: 60.0 micrograms/kg/injection, schedule: Q01DX009 (ip), vehicle: distilled water + alcohol) of the same compound?
**A.** 168 % of control

**Q.** And the T/C (dose: 60.0 micrograms/kg/injection, schedule: Q01DX009 (ip), vehicle: saline)?
**A.** 165 % of control

**Q.** And the T/C (dose: 64.0 micrograms/kg/injection, schedule: Q01DX009 (ip), vehicle: other)?
**A.** 159 % of control and 189 % of control and 215 % of control

**Q.** And the T/C (dose: 64.0 micrograms/kg/injection, schedule: Q01DX009 (ip), vehicle: saline sonified)?
**A.** 165 % of control and 172 % of control

**Q.** What about the T/C (dose: 64.0 micrograms/kg/injection, schedule: Q01DX009 (ip), vehicle: saline) of the same compound?
**A.** 176 % of control

**Q.** What about the T/C (dose: 64.0 micrograms/kg/injection, schedule: Q04DX003 (ip), vehicle: saline sonified) of the same compound?
**A.** 174 % of control

**Q.** What about the T/C (dose: 120.0 micrograms/kg/injection, schedule: Q01DX009 (ip), vehicle: Klucel (hydroxypropylcellulose) (HPC)) of the same compound?
**A.** 154 % of control

**Q.** And the T/C (dose: 120.0 micrograms/kg/injection, schedule: Q01DX009 (ip), vehicle: distilled water + alcohol)?
**A.** 173 % of control

**Q.** What about the T/C (dose: 120.0 micrograms/kg/injection, schedule: Q01DX009 (ip), vehicle: saline with Tween-80) of the same compound?
**A.** 162 % of control and 189 % of control

**Q.** What about the T/C (dose: 128.0 micrograms/kg/injection, schedule: Q01DX009 (ip), vehicle: saline sonified) of the same compound?
**A.** 164 % of control and 188 % of control

**Q.** And the T/C (dose: 128.0 micrograms/kg/injection, schedule: Q01DX009 (ip), vehicle: saline)?
**A.** 166 % of control

**Q.** What about the T/C (dose: 128.0 micrograms/kg/injection, schedule: Q04DX003 (ip), vehicle: saline sonified) of the same compound?
**A.** 165 % of control

**Q.** And the T/C (dose: 192.0 micrograms/kg/injection, schedule: Q04DX003 (ip), vehicle: saline sonified)?
**A.** 180 % of control

**Q.** And the T/C (dose: 240.0 micrograms/kg/injection, schedule: Q01DX009 (ip), vehicle: Klucel (hydroxypropylcellulose) (HPC))?
**A.** 151 % of control

**Q.** What about the T/C (dose: 240.0 micrograms/kg/injection, schedule: Q01DX009 (ip), vehicle: saline with Tween-80) of the same compound?
**A.** 115 % of control

**Q.** What about the T/C (dose: 256.0 micrograms/kg/injection, schedule: Q04DX003 (ip), vehicle: saline sonified) of the same compound?
**A.** 175 % of control

**Q.** And the T/C (dose: 480.0 micrograms/kg/injection, schedule: Q01DX009 (ip), vehicle: Klucel (hydroxypropylcellulose) (HPC))?
**A.** 168 % of control

**Q.** `CN(C)CC(Cl)CCl` (configuration not stated) was tested. Which T/C [1] did it give?
**A.** 98 % of control

**Q.** What about the T/C (dose: 100.0 mg/kg/injection, schedule: Q01DX009 (ip), vehicle: saline) of the same compound?
**A.** 102 % of control

**Q.** What about the T/C (dose: 200.0 mg/kg/injection, schedule: Q01DX009 (ip), vehicle: saline) of the same compound?
**A.** 105 % of control

**Q.** What about the T/C (dose: 400.0 mg/kg/injection, schedule: Q01DX009 (ip), vehicle: saline) of the same compound?
**A.** 108 % of control

**Q.** Which results are given for `O=c1oc2c3ccccc3c3ccccc3c2o1`?
**A.** T/C (dose: 1.56 mg/kg/injection, schedule: Q01DX009 (ip), vehicle: Klucel (hydroxypropylcellulose) (HPC)): 100 % of control; T/C (dose: 3.12 mg/kg/injection, schedule: Q01DX009 (ip), vehicle: Klucel (hydroxypropylcellulose) (HPC)): 96 % of control; T/C (dose: 6.25 mg/kg/injection, schedule: Q01DX009 (ip), vehicle: Klucel (hydroxypropylcellulose) (HPC)): 113 % of control; T/C [2]: 106 % of control; T/C (dose: 25.0 mg/kg/injection, schedule: Q01DX009 (ip), vehicle: Klucel (hydroxypropylcellulose) (HPC)): 86 % of control and 96 % of control

**Q.** With `C/C(=C\c1ccccc1)[N+](=O)[O-]` as the compound, how does the T/C (dose: 25.0 mg/kg/injection, schedule: Q01DX009 (ip), vehicle: saline with Tween-80) read?
**A.** 111 % of control

**Q.** And the T/C (dose: 25.0 mg/kg/injection, schedule: Q04DX003 (ip), vehicle: saline with Tween-80)?
**A.** 110 % of control

**Q.** What about the T/C (dose: 50.0 mg/kg/injection, schedule: Q01DX009 (ip), vehicle: saline with Tween-80) of the same compound?
**A.** 105 % of control

**Q.** What about the T/C (dose: 50.0 mg/kg/injection, schedule: Q04DX003 (ip), vehicle: saline with Tween-80) of the same compound?
**A.** 110 % of control

**Q.** With `CS(=O)(=O)OCCCOS(C)(=O)=O` as the compound, how does the T/C [2] read?
**A.** 91 % of control

**Q.** Which results are given for `N=C(N)c1ccc(/C=C/c2ccc(C(=N)N)cc2O)cc1`?
**A.** T/C (dose: 3.12 mg/kg/injection, schedule: Q01DX009 (ip), vehicle: water): 105 % of control and 107 % of control; T/C (dose: 6.25 mg/kg/injection, schedule: Q01DX009 (ip), vehicle: water): 88 % of control and 101 % of control; T/C (dose: 12.5 mg/kg/injection, schedule: Q01DX009 (ip), vehicle: water): 101 % of control and 107 % of control; T/C (dose: 25.0 mg/kg/injection, schedule: Q01DX009 (ip), vehicle: water): 97 % of control and 114 % of control; T/C (dose: 50.0 mg/kg/injection, schedule: Q01DX009 (ip), vehicle: water): 93 % of control and 104 % of control

**Q.** `NC(N)=NC1CCCC1` was tested. Which T/C (dose: 12.5 mg/kg/injection, schedule: Q01DX009 (ip), vehicle: saline) did it give?
**A.** 97 % of control

**Q.** What about the T/C (dose: 25.0 mg/kg/injection, schedule: Q01DX009 (ip), vehicle: saline) of the same compound?
**A.** 114 % of control

**Q.** And the T/C [1]?
**A.** 98 % of control

**Q.** What does the source list for `C=CCOCC(O)CO` (configuration not stated)?
**A.** T/C (dose: 100.0 mg/kg/injection, schedule: Q04DX003 (ip), vehicle: saline): 109 % of control; T/C (dose: 200.0 mg/kg/injection, schedule: Q04DX003 (ip), vehicle: saline): 93 % of control; T/C (dose: 400.0 mg/kg/injection, schedule: Q04DX003 (ip), vehicle: saline): 102 % of control

**Q.** With `CCOCCc1ccccn1` as the compound, how does the T/C (dose: 12.5 mg/kg/injection, schedule: Q04DX003 (ip), vehicle: saline) read?
**A.** 106 % of control

**Q.** And the T/C (dose: 25.0 mg/kg/injection, schedule: Q04DX003 (ip), vehicle: saline)?
**A.** 100 % of control

**Q.** What about the T/C (dose: 50.0 mg/kg/injection, schedule: Q04DX003 (ip), vehicle: saline) of the same compound?
**A.** 96 % of control
